# Assay results from US20250375491A1, “MONASCUS PILOSUS STRAIN, COMPOSITION FOR LOSING WEIGHT AND IMPROVING GUT MICROBIOTA COMPOSITION AND USE OF SAID MONASCUS PILOSUS” (SUNWAY BIOTECH CO., LTD., priority 2024, published 2025).
# Marks after values point to notes of the source that are not given here.
# Columns and labels:
# Assay type in all cases: in vivo, Sprague-Dawley (SD) rats
# [1] = system: gut microbiota of high-fat diet rats; experiment: Gut microbiota fecal analysis (full-length 16S sequencing)
# Method: About 0.3 g of fresh feces was collected into 1.5 mL of eppendorf before fasting for sacrifice, sealed with parafilm, stored at −80° C. for analysis, and sent to BioTools (New Taipei, Taiwan) for analysis.
# Total genomic DNA (QIAamp PowerFecal DNA, Qiagen) was extracted from the samples. The DNA concentration was determined by Qubit 4.0 fluorometer (Thermo Scientific) and adjusted to 1 ng/μL. The full-length 16S gene (V1-V9 region) was amplified by 16S gene-specific primers with barcodes (Forward primer 1): 5′ Phos/GCATC-16-base barcode-Sequence ID Number 11, Reverse primer 1: 5′Phos/GCATC-16-base barcode-Sequence ID Number 12). PCR reactions were performed using KAPA HiFi HotStart ReadyMix (Roche): at 95° C. for 3 min. and 20-27 cycles (Sample Dependency): at 95° C. for 30 sec., at 57° C. for 30 sec., at 72° C. for 60 sec; at 72° C. for 5 min., and finally stored at 4° C. for future use. PCR products were monitored on 1% agarose gels. Samples of approximately 1500 bp bright bands were selected and purified by using AMPure PB Beads for SMRTbell library preparation.
# SMRTbell libraries were prepared based on full-length 16S gene amplifications with barcoded primers used in the Multiplex SMRTbell Library Preparation and Sequencing Program (Pacbio). Sequencing was performed in circular consensus sequencing (CCS) mode on a PacBio Sequel Ile instrument, generating HiFi read with a Phred Scale=30. The DNA to be tested will be sequenced iteratively. By comparing the results of the reverse sequencing, sequencing errors will be corrected, ultimately achieving a high accuracy of >99.9% (QV30).
# Information Analysis (Sequential data processing/denoising and species annotation) The sample data from the downstream data were sorted out according to the Barcode sequence and PCR amplification primer sequences. After the removal of the barcodes and primer sequences, the data were imported into QIIME2 (v2019.7.0; https://qiime2.org/) and all the sequences of the samples were saved into one corresponding object Artifacts. QIIME2 cutadapt was used to remove the amplicon variant primers (forward primer 2: Sequence ID Number 13; reverse primer 2: Sequence ID Number 14), and the sequence with the primers removed will be used as QIIME2 DADA2. Input Reads.
# The denoising analysis began with the filtering of sequences, setting each sequence to be cropped to a specified length (forward reads: 280 bp; reverse reads: 220 bp) and setting the MaxEE (forward reads: 2; reverse reads: 2) parameter as the maximum number of expected error bases allowed for the sequence. This was followed by denoising, the core algorithm of DADA2 utilizing the information of sequence abundance, quality score, and relationships between sequences to correct the […] of sequencing errors and to infer the real sequences. Splicing was performed after denoising each end of the sequence (minimum overlap length 20 bp; overlap region was not allowed to be mismatched). Finally, the spliced sequences are subjected to chimera removal by comparing the sequences with higher abundance in the sample. If a sequence with low abundance is similar to several sequences, it can be recognized as a chimera and removed from the sample. Sequences after denoising analysis were used as representative sequences of Amplicon Sequence Variants (ASVs) and can be obtained from the ASV table for subsequent species annotation. The QIIME2 feature-classifier (v2019.7.0; https://qiime2.org/) was used to select machine learning-based classification methods and to train naïve bayes classifiers for different databases and specific variability regions. The taxonomic annotation of ASVs represented by this classifier yields taxonomic information and the composition of the microbial phyla of each sample at each classification level including kingdom, phylum, class, order, family, genus, and species.
# Welch's t-test was analyzed by STAMP (v2.1.3), and the intergroup species differences were plotted as bar charts. […]
# [2] = system: obesity rats induced by high-fat feed; experiment: Body fat mass and body fat rate (perirenal and epididymal fatty tissues); details: high-fat diet rats, Monascinol 0.31 mg/kg BW daily by tube feeding (human 3 mg/day), 8 weeks
# Method: (§1) Forty male rats of 8-week-old Sprague-Dawley (SD) strain were purchased from BioLASCO (Taipei, Taiwan) for the experiment. The growing environment was one with constant indoor temperature (25±1° C.), relative humidity of 60%, and 12 hours of cyclic light (light time from 8:00 to 20:00). The rats were acclimatized for four days before the formal experiment, then reared in 5 groups of 8 rats each for 8 weeks and were fed in an ad libitum feeding manner, and their body weight, food intake and water intake were measured at regular intervals during the experimental period.
# (§2) The experimental rats were divided into groups, and the obesity rats were induced by high-fat feed as follows (Please refer to Table 1). • i. NOR Group: Normal animal group. • ii. HF Group: High-fat control group including obesity rats induced by high-fat feed. • iii. RL Group: Obesity rats induced by high-fat feed and tube-fed daily with red yeast rice powder, equivalent to 0.5 g of red yeast rice containing 1.5 mg of Monascinol per day consumed by an adult rat of 60 kg. • iv. […]
# At the time of sacrifice, fatty tissues surrounding the kidneys and the epididymis (perirenal and epididymal fatty tissues) of the experimental animals were removed, and the their weights were measured and recorded. The body fat rate was calculated as follows: […]
# [3] = system: obesity rats induced by high-fat feed; experiment: Body weight change of obesity rats induced by high-fat feed; details: high-fat diet rats, Monascinol 0.31 mg/kg BW daily by tube feeding (human 3 mg/day), 8 weeks
# Method: • (1) Msol Group: This group used Monascinol with an adult daily dosage of 3 mg/day. • (2) RL and RH Groups: These groups used the red yeast rice obtained by fermenting the Monascus pilosus fermented rice of the present invention and the red yeast rice contained 3 mg/g of Monascinol, wherein the adult daily dosage of the red yeast rice for the RL and RH groups were 0.5 g/day and 2 g/day respectively. 2. Experiment on Evaluation of Adjustment of Body Fat Composition
# as §1
# The feeding dosage was calculated according to the method of “Estimating the maximum safe starting dose in initial clinical trials for therapeutics in adult healthy volunteers” published by the U.S. Food and Drug Administration in 2005. Provided that an adult of 60 kg was used as the base, the principle of dosage conversion is 6.2 times of the recommended daily intake of mg/kg bw/day for human as the recommended daily intake of mg/kg bw/day for rat, and the rat group is configured and fed with the dosage as shown in Table 1. The formulae are as follows: Dose intake per kilogram of body weight in rats=Recommended intake in humans÷Body weight 60 kg×6.2, and thus the daily dose intake per kilogram of body weight in rats can be calculated.
# The experimental rats were divided into groups, and the obesity rats were induced by high-fat feed as follows (Please refer to Table 1). • i. NOR Group: Normal animal group. • ii. […]
# The body weight of rats was measured weekly and the changes in body weight of each group were compared at the end of the experiment.
# [4] = system: obesity rats induced by high-fat feed; experiment: Liver lipid extraction and determination (TC, TG); details: high-fat diet rats; Monascinol 0.31 mg/kg BW daily by tube feeding (human 3 mg/day), 8 weeks
# Method: as §1
# (§3) The experimental rats were divided into groups, and the obesity rats were induced by high-fat feed as follows (Please refer to Table 1). • i. NOR Group: Normal animal group. • ii. HF Group: High-fat control group including obesity rats induced by high-fat feed. • iii. […]
# (§4) 0.1 g of liver tissue or fecal powder was weighed and 1 mL of chloroform:methanol (2:1, v/v volume ratio) was added, and homogenized with a tissue homogenizer and centrifuged to obtain the supernatant. […] The TC concentration was analyzed using a commercially available biochemical reagent (Model No. BXC 0261, Fortress), and the TG concentration was analyzed using a commercially available biochemical reagent (Model No. BXC 0271, Fortress), as per the kit instruction manual.
# [5] = system: obesity rats induced by high-fat feed; experiment: Serum biochemical analysis (TC, TG); details: high-fat diet rats, Monascinol 0.31 mg/kg BW daily by tube feeding (human 3 mg/day), 8 weeks
# Method: as §1, §2
# The test was performed using a biochemical autoanalyzer (Model No.: Beckman-700, purchased from Fullerton, California, USA). The items measured were Total Cholesterol (TC), and Triglyceride (TG).
# [6] = system: obesity rats induced by high-fat feed; experiment: Fecal lipid extraction and determination (TC, TG); details: high-fat diet rats; Monascinol 0.31 mg/kg BW daily by tube feeding (human 3 mg/day), 8 weeks
# Method: as §1, §3, §4
# [7] = system: obesity rats induced by high-fat feed; experiment: Liver weight and liver/body weight of high-fat diet rats; details: Monascinol 0.31 mg/kg BW daily by tube feeding (human 3 mg/day), 8 weeks
# Method: as §1
# as §2, with “iv. RH Group: Obesity rats induced by high-fat feed and tube-fed red yeast rice powder daily, equivalent to 2 g of red yeast rice containing 6 mg of Monascinol per day consumed by an adult of 60 kg. • v.” for “iv.”
# [8] = FIGS. 9A-9D, high-fat diet rats
# [9] = order level, FIG. 7C, high-fat diet rats
# [10] = phylum level, FIG. 7A, high-fat diet rats vs HF group
substance,measurement,setting,value
Monascinol [Msol],F/B ratio (abundance ratio of Firmicutes to Bacteroidetes),"[1]; FIG. 7A, high-fat diet rats vs HF group",decrease
same,effect on B. thetaiotaomicron in the intestines,[1]; [8],most significant
same,intestinal abundance of Dubosiella newyorkensis,[1]; [8],increase
same,bacterial abundance of Bifidobacteriales in the intestine,[1]; [9],increased
same,intestinal abundance of Verrucomicrobiales,[1]; [9],increased
same,abundance of Eubacteriales,"[1]; order level, FIG. 8, HF group 50.14%, high-fat diet rats, Monascinol (MSol, 3 mg/day), 8 weeks",43.21%
same,abundance of Bacteroidetes,[1]; [10],increase
same,abundance of Firmicutes,[1]; [10],decrease
same,abundance of A. muciniphila,"[1]; species level, FIG. 7F, high-fat diet-induced obesity rats",increased
same,Fat/body weight,[2]; body fat percentage,3.35 ± 0.55^b %
same,Fat weight,[2]; perirenal and epididymal fat,17.95 3.55^b g
same,Weight before Sacrifice,[3]; after fasting,488.5 ± 31.7^a g
same,Weight 8 week,[3],512.1 ± 31.1^a g
same,Weight gain,[3],220.8 ± 38.8^a g
same,Liver TC,[4],5.05 ± 0.54^a mg/g
same,Liver TG,[4],14.40 ± 1.57^a mg/g
same,TC,[5],65.0 ± 10.4^b mg/dL
same,TG,[5],61.7 ± 10.7^a mg/dL
same,Feces TC,[6],46.22 ± 4.72^c mg/g
same,Feces TG,[6],61.27 4.80^cd mg/g
same,Liver Weight/Body Weight,[7],3.28 ± 0.37^b %
same,Liver weight,[7],16.84 2.31^b g
